Experiments:
[1] = test system: HIV-1 PR; details: Blumenstein et al. 1989; cited from earlier work
[2] = test system: HIV-2 PR; details: Blumenstein et al. 1989; cited from earlier work
[3] = molecular target: T1, HIV-1 protease (Human immunodeficiency virus type 1 group M subtype B, UniProt P03369); experiment: HIV-1 PR inhibition (HPLC assay of HIV substrate IV cleavage after preincubation with inhibitor); type: biochemical
T1 construct: each of the identical 99 amino acid subunits contributes a single aspartyl residue to the catalytic site; made in house; host or cells: chemical synthesis (no expression host); obtained from Dr. Stephen Kent, The Scripps Research Institute
Experimental: Typical reactions were carried out at room temperature (25° C.) in 150 μl total volumes of 100 mM MES buffer, pH 6.2, containing 1 mM ethylenediaminetetraacetic acid (EDTA) and 2 mM dithiothreitol (DTT) plus 0.1 percent (v/v) Triton X-100.
Synthetic HIV-1 protease [0.5 μg, obtained from Dr. Stephen Kent of The Scripps Research Institute; see Cell, 1988, 54; 363-368] was first incubated in buffer with (or without) various concentrations of "inhibitor(s)" for 30 minutes at 25° C. The protease reaction was then initiated by the addition of HIV substrate IV (Bachem Bioscience Inc.) at fixed concentrations (e.g., 100 mg/ml). HIV Substrate IV has the sequence
Lys-Ala-Arg-Val-Nle-p-NO2 Phe-glu-Ala-Nle-NH2 (SEQ ID NO 15)
At three appropriate times (normally 40, 80 and 120 minutes) the hydrolysis was stopped by adding a 40 μl aliquot from the reaction to 40 μl of a prepared quench solution. The quench solution was 1:4 acetonitrile:water (3 percent trifluoroacetic acid; TFA) and contained 150 μM m-toluic acid which served as an HPLC standard. […] Reaction progress was monitored by following the increasing absorbance (peak height) of the substrate IV cleavage product detected at […]. […]

Row | Structure (SMILES) | inhibition of HIV-1 PR [1] | inhibition of HIV-2 PR [2] | t1/2 of inactivation of the protease ([3]; 2 mM inhibitor, preincubation, 25° C., pH 6.2) | mode of inhibition of HIV-1 PR ([3]; preincubation with 2 mM inhibitor (FIG. 1))
1 | C/C=C/C/C=C/CCC(=O)[C@H]1O[C@H]1C(N)=O [cerulenin] | weakly inhibit | weakly inhibit |  | 
2 | CC(C)(C)OC(=O)N[C@@H](Cc1ccccc1)C1(C)CO1 (stereo partly shown) [Example 2] |  |  | 3 h | competitive and timedependent inactivation
